Active and inactive are the calls of the source.
Columns and labels:
Assay type in all cases: functional
[1] = (§1) Counterscreen for antagonists of the orexin 1 receptor (OX1R; HCRTR1): Fluorescence-based cell-based high throughput dose response assay to identify antagonists of the parental CHO cell line. [Related pubchem assays (depositor defined):AID434989, AID435008, AID463079, AID485270, AID492963, AID492964, AID492965, AID493232, AID504699, AID504701]
Orexin receptor type 2 [2] = biological target: T1, Orexin receptor type 2 (Homo sapiens, UniProt O43614); assay: Counterscreen assay for antagonists of the orexin 1 receptor (OX1R; HCRTR1): Fluorescence-based cell-based dose response assay for antagonists of the orexin 2 receptor (OX2R; HCRTR2), run by assay provider.
T1 sequence (O43614 whole entry): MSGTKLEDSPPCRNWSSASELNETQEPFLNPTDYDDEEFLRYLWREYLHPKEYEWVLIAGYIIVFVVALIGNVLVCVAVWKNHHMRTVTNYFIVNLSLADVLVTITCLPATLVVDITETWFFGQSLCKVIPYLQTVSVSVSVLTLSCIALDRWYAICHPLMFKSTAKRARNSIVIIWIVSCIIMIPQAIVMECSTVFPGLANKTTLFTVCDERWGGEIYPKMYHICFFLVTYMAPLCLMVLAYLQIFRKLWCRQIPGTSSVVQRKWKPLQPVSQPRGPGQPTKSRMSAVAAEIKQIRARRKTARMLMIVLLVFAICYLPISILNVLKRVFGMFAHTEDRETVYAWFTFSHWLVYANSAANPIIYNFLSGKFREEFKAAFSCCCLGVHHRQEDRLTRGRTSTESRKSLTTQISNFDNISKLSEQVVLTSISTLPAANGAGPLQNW

CHO-K1 = assay: as §1, with “Homogeneous time resolved fluorescence (HTRF)-based” for “Fluorescence-based”, “cell-based” for “cell-based high throughput”, “CHO-K1” for “CHO”; details: Cricetulus griseus
[3] = biological target: T2, Orexin/Hypocretin receptor type 1 (Homo sapiens, UniProt O43613); assay: (§2) Fluorescence-based cell-based high throughput dose response assay for antagonists of the orexin 1 receptor (OX1R; HCRTR1). [Related pubchem assays (depositor defined):AID434989, AID435008, AID463079, AID485270, AID492963, AID492964, AID492965, AID493232, AID504717, AID504718]
T2 sequence (O43613 whole entry): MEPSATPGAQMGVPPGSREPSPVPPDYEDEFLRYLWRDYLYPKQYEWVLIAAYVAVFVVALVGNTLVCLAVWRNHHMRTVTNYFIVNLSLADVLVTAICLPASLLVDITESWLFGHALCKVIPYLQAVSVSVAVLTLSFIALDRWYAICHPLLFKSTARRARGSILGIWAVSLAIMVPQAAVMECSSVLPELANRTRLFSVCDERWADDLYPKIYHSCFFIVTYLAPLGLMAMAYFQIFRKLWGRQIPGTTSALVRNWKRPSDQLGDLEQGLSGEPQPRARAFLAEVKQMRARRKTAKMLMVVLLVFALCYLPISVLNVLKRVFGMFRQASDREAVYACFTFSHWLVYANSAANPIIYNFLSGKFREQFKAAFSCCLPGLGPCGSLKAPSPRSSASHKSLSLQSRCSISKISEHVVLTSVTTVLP

Orexin receptor type 2 [4] = biological target: T1, Orexin receptor type 2; assay: Counterscreen assay for antagonists of the orexin 1 receptor (OX1R; HCRTR1): Homogeneous Time Resolved Fluorescence (HTRF)-based cell-based dose response assay for antagonists of the orexin 2 receptor (OX2R; HCRTR2), run by assay provider.
[5] = biological target: T2, Orexin/Hypocretin receptor type 1; assay: as §2, with “Homogeneous Time Resolved Fluorescence (HTRF)-based” for “Fluorescence-based”
[6] = biological target: Mitochondrial peptide methionine sulfoxide reductase (Bos taurus, UniProt P54149); assay: Absorbance-based biochemical high throughput dose response assay for activators of Methionine sulfoxide reductase A (MsrA).
[7] = biological target: DNA (cytosine-5)-methyltransferase 1 (Homo sapiens, UniProt P26358); assay: DNMT1 methyltransferase inhibitors, confirmation, biochemical, fluorescent molecular beacon (AID 602386)
[8] = biological target: T3, Sentrin-specific protease 8 (Homo sapiens, UniProt Q96LD8); assay: SENP8 protease inhibitors, SAR follow-up, biochemical, luminescence, set 2 (AID 588601)
T3 sequence (Q96LD8 whole entry): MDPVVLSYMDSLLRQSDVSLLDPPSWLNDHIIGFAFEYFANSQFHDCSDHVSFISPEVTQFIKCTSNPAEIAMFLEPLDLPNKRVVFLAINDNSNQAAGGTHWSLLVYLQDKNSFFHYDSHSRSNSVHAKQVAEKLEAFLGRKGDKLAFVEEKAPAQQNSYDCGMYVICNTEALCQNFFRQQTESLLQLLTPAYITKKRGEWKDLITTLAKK

[9] = biological target: T4, Sentrin-specific protease 7 (Homo sapiens, UniProt Q9BQF6); assay: SENP7 protease inhibitors, SAR follow-up, biochemical, luminescence, set 2 (AID 588600)
T4 sequence (Q9BQF6 whole entry): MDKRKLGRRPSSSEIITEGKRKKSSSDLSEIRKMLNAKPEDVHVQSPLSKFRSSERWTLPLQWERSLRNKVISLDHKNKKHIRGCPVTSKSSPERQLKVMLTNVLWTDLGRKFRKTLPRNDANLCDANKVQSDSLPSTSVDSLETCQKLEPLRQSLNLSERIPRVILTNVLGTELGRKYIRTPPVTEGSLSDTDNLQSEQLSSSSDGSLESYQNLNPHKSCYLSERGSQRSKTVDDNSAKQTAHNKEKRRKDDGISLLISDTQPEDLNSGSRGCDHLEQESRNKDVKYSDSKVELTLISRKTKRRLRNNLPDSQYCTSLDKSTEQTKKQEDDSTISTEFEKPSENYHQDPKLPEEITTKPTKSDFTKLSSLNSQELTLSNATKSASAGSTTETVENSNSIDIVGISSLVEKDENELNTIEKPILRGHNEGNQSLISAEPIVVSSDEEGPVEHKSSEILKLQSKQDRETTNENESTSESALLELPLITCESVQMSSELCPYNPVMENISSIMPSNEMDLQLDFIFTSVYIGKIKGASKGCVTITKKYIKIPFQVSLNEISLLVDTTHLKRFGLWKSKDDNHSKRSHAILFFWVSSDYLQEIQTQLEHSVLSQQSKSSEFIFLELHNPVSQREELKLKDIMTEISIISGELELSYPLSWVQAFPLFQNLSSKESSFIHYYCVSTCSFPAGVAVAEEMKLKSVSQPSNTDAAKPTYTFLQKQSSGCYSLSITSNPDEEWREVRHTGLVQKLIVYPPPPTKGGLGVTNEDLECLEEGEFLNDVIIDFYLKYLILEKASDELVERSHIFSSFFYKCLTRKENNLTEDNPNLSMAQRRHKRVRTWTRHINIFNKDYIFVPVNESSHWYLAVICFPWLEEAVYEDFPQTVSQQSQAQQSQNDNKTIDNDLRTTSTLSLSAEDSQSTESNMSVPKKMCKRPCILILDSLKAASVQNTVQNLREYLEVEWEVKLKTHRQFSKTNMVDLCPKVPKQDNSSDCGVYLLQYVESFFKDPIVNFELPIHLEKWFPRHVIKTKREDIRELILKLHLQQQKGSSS

Caspase-3 = biological target: T5, Caspase-3 (Homo sapiens, UniProt P42574); assay: caspase-3 inhibitors as off-family protease, SAR follow-up, selectivity assay for SENP protease inhibitor project, biochemical, luminescence, set 2 (AID 588599)
T5 sequence (P42574 whole entry): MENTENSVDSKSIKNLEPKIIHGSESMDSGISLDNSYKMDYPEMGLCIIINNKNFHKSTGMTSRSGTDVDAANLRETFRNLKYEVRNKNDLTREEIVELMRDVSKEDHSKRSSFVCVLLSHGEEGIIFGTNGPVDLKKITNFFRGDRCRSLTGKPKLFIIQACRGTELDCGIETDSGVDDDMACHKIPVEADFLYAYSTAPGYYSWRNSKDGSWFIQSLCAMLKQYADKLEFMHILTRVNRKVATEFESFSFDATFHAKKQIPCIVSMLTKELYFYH

[10] = biological target: T6, Sentrin-specific protease 6 (Homo sapiens, UniProt Q9GZR1); assay: SENP6 protease inhibitors, SAR follow-up, biochemical, luminescence, set 2 (AID 588598)
T6 sequence (Q9GZR1 whole entry): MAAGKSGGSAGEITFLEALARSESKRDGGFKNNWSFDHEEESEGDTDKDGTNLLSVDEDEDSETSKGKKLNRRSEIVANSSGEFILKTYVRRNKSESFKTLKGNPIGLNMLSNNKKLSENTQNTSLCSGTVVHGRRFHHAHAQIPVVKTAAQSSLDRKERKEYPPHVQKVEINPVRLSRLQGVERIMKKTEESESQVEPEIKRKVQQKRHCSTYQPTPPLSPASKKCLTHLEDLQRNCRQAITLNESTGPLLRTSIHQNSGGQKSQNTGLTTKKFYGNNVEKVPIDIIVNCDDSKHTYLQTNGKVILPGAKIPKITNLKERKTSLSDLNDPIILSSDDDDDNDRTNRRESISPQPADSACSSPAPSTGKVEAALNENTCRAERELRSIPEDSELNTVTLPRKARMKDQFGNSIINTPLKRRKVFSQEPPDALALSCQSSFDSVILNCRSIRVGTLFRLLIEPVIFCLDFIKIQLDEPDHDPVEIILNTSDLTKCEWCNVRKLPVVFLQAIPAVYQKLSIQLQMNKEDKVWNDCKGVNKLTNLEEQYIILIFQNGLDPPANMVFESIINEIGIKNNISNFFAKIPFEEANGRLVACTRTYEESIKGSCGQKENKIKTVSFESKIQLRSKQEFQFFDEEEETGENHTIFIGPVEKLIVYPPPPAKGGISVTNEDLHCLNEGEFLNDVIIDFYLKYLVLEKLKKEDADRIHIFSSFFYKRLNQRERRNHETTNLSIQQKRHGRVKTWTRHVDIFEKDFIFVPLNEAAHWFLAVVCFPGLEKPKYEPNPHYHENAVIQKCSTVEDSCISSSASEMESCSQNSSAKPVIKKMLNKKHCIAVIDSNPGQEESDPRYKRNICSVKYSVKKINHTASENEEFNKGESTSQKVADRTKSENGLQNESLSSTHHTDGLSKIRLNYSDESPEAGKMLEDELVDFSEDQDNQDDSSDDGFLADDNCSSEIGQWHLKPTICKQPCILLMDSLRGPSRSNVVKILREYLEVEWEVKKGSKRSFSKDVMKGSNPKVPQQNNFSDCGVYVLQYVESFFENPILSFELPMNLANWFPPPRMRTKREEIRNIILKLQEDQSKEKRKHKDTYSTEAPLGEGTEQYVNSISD

[11] = biological target: Melanin-concentrating hormone receptor 1 (Homo sapiens, UniProt Q99705); assay: Late-stage fluorescence-based counterscreen for antagonists of the G-protein coupled receptor 7 (GPR7): cell-based dose response assay to identify antagonists of the melanin-concentrating hormone receptor 1 (MCHR1) Set 6.
[12] = biological target: T7, Neuropeptides B/W receptor type 1 (Homo sapiens, UniProt P48145); assay: GPR7 antagonist potency, late-stage follow-up, cell-based, fluorescence, dose response, set 6 (AID 588583)
T7 sequence (P48145 whole entry): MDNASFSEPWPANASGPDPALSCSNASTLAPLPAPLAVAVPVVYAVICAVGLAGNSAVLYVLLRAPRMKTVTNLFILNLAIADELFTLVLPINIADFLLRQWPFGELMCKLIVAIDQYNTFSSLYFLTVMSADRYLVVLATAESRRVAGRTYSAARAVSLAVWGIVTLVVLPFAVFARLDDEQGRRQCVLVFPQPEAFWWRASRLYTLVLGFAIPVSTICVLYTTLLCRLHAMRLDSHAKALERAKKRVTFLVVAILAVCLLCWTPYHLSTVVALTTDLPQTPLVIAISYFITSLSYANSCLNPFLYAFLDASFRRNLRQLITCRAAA

Aurora kinase B = Aurora kinase B (Homo sapiens, UniProt Q96GD4)
Aurora kinase A = Aurora kinase A (Homo sapiens, UniProt O14965);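 note: value from the Navigating the Kinome kinase panel profiling, panel entry STK6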
Sequence of Aurora kinase A (O14965 whole entry): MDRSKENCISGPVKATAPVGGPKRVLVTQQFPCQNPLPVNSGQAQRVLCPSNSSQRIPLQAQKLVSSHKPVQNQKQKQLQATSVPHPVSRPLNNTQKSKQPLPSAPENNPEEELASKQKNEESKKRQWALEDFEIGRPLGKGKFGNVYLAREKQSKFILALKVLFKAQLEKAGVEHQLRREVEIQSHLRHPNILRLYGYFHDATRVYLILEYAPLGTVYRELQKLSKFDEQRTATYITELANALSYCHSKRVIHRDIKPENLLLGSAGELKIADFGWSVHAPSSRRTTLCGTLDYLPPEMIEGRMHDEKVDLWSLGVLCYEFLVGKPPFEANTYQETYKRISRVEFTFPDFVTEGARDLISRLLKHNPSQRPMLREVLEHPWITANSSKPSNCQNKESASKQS

Sequence of Melanin-concentrating hormone receptor 1 (Q99705 whole entry): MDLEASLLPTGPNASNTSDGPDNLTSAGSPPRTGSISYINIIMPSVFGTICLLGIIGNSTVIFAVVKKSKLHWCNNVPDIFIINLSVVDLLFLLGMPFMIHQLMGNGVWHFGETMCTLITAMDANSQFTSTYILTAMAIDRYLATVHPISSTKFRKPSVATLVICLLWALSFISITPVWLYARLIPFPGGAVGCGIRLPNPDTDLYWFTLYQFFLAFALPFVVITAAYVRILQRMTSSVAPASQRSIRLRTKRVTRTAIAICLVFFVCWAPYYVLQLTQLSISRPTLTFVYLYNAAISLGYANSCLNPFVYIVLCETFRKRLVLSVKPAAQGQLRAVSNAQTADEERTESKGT
Sequence of Mitochondrial peptide methionine sulfoxide reductase (P54149 whole entry): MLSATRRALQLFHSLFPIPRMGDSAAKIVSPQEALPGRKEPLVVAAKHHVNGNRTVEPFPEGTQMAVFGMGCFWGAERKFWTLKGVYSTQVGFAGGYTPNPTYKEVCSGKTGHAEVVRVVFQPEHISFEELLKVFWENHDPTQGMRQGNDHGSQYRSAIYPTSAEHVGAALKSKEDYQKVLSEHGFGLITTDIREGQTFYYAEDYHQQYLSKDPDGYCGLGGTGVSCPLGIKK
Sequence of DNA (cytosine-5)-methyltransferase 1 (P26358 whole entry): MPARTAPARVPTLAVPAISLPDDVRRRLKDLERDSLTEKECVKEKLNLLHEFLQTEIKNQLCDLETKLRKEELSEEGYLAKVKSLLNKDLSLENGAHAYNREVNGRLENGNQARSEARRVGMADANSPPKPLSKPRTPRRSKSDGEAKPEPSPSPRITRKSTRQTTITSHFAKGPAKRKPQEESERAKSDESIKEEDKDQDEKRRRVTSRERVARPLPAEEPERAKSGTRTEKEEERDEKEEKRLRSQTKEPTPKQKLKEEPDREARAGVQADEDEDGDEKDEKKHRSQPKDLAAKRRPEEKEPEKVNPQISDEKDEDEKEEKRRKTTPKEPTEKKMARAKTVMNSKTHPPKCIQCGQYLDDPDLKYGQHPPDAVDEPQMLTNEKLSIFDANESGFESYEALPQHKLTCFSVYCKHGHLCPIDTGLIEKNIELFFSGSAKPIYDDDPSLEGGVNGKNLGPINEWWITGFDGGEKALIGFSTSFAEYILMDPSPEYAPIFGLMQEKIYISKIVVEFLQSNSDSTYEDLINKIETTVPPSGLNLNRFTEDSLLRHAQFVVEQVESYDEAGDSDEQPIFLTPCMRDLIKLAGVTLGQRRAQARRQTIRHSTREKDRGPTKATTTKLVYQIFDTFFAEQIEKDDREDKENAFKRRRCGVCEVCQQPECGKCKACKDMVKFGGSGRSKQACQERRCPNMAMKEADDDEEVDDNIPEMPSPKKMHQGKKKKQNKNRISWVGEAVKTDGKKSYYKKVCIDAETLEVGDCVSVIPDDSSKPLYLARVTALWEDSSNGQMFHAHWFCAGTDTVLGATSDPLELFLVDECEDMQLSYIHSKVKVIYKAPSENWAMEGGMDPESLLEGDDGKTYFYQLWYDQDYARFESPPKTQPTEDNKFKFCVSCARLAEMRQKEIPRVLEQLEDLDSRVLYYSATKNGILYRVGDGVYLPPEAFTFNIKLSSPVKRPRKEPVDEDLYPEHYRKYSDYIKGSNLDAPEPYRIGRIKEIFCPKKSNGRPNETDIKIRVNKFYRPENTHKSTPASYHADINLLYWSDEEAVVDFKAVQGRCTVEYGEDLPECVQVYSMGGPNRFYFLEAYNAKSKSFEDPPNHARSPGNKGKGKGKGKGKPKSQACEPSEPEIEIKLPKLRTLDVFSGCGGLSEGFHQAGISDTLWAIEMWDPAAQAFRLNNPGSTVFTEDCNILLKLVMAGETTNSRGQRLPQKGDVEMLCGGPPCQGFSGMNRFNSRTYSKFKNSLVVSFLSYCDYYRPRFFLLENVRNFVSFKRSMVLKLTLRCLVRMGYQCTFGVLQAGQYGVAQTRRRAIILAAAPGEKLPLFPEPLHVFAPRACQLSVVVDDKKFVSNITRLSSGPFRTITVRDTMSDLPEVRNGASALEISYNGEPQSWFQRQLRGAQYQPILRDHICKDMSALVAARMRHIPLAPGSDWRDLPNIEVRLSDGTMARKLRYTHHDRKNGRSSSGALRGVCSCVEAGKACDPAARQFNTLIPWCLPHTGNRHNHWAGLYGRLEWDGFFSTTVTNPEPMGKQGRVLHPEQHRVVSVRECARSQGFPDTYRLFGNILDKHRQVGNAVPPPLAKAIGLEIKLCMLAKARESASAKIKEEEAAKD
Sequence of Aurora kinase B (Q96GD4 whole entry): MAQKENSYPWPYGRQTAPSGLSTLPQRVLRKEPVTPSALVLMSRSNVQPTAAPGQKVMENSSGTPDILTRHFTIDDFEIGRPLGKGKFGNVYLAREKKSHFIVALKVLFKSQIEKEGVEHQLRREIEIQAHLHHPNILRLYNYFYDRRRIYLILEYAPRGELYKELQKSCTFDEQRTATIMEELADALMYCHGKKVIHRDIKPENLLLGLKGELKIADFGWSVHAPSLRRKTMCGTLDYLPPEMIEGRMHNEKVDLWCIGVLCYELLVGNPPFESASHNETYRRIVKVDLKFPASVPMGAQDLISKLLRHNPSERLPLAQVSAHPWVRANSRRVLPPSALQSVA

## COc1ccc(-c2cc3nc(-c4ccccc4)cc(N4CCC5(CC4)OCCO5)n3n2)cc1
[1]
  IC50: > 49.8 µM (inactive)
Orexin receptor type 2 [2]
  IC50: 10.8 µM (inactive)
CHO-K1
  IC50: > 66.2 µM (inactive)
[3]
  IC50: 23.6 µM (inactive)
Orexin receptor type 2 [4]
  IC50: > 50 µM (inactive)
[5]
  IC50: 5.7 µM (active)

## O=C1C(=O)c2c(ccc3ccccc23)-c2ccccc21
[6]
  EC50: > 104 µM (inactive)
[7]
  IC50: 1.34 µM (active)

## CC1CN(C(=O)C(=O)c2c[nH]c3ccccc23)CC(C)O1 (configuration not stated)
[8]
  IC50: > 99 µM (inactive)
[9]
  IC50: > 99 µM (inactive)
Caspase-3
  IC50: > 99 µM (inactive)
[10]
  IC50: > 99 µM (inactive)

## COCc1c(C(=O)Nc2nc3ccc(C)cc3s2)sc2cccc(F)c12
[8]
  IC50: > 99 µM (inactive)
[9]
  IC50: > 99 µM (inactive)
Caspase-3
  IC50: > 99 µM (inactive)
[10]
  IC50: > 99 µM (inactive)

## Cc1ccccc1Cn1ncc(Cl)c(C(C#N)c2ccccc2)c1=O (configuration not stated)
[11]
  IC50: 0.484 µM (active)
[12]
  IC50: 0.484 µM (active)

## N#CC(c1ccc(Cl)cc1F)c1c(Cl)cnn(Cc2cccc3ccccc23)c1=O (configuration not stated)
[11]
  IC50: 0.594 µM (active)
[12]
  IC50: 0.594 µM (active)

## Cc1oc2ncnc(N)c2c1-c1ccc(NC(=O)Nc2cc(C(F)(F)F)ccc2F)cc1
Aurora kinase B
  Ki: 0.00794 µM (active)
Aurora kinase A
  Ki: 0.126 µM (active)
